These results are taken from US20230248034A1, “A SWEETENER OR SWEETNESS ENHANCER COMPOSITION” (ANALYTICON DISCOVERY GMBH, priority 2020, published 2023).

Molecules are shown by their SMILES.

Assay [1] is described as follows: Organoleptic test of the compounds against sucrose (sweetness). Details: key: 3: sweeter than the control solution; 2: sweetness comparable with the control solution; 1: less sweet than the control solution but still sweet. Format: in vivo. The following applies: 0.4 mg/ml (400 ppm) in non-carbonated mineral water vs sucrose 20 g/l; panel of 3-4 panelists. The method, then:
The isolated pure compound was dissolved in non-carbonated mineral water (“Evian”) in a concentration of 0.4 mg/ml (400 ppm). The sweet taste of each sample was compared by a panel of 3-4 panelists with a solution of sucrose in a concentration of 20 g/l.

The nature of assay [2]: Organoleptic test in combination with sucrose against sucrose (sucrose enhancement, 2-AFC). Format: in vivo. Set-up: key: x = detected. Conditions: compound below its sweetness perception level in 6% sucrose vs 6% sucrose, 12 to 15 panelists. How it is done:
The isolated pure compounds were dissolved in non-carbonated mineral water (“Evian”) in a concentration of 50 ppm (0.05 mg/ml), 25 ppm (0.025 mg/ml), 12.5 pm (0.0125 mg/ml) and […] (0.00625 mg/ml). The sweet taste of each sample was detected by a panel of 3-4 panelists to detect the sweetness perception level. The highest concentration below the sweetness perception level was used for the evaluation of the sweet taste enhancement of sucrose.
A solution of the isolated compound in a concentration below the sweetness perception level was dissolved in 6% sucrose solution. The sweet taste of this sample was compared to the sweet taste of a 6% sucrose solution by a panel of 12 to 15 panelists in a two-alternative forced-choice test (2-AFC. E2164-16_Standard Test Method for Directional Difference Test). The panelists were trained to differentiate between the sweetness of a 6% and a 7% Sucrose solution.

Assay [3] in a line: Organoleptic test in combination with Rebaudioside M (Rebaudioside M enhancement, 2-AFC). The assay is classed as in vivo. Set-up: key: x = detected. The following applies: compound below its sweetness perception level in 150 ppm Rebaudioside M vs 150 ppm Rebaudioside M, 12 to 15 panelists. How it is done: The isolated pure compounds were dissolved in non-carbonated mineral water (“Evian”) in a concentration of 50 ppm (0.05 mg/ml), 25 ppm (0.025 mg/ml), 12.5 pm (0.0125 mg/ml) and 6.125 ppm (0.006125 mg/ml). The sweet taste of each sample was detected by a panel of 3-4 panelists to detect the sweetness perception level. The highest concentration below the sweetness perception level was used for the evaluation of the sweet taste enhancement of Rebaudioside M.
A solution of the isolated compounds in a concentration below the sweetness perception level was dissolved in 150 ppm Rebaudioside M solution. The sweet taste of this sample was compared to the sweet taste of a 150 ppm Rebaudioside M solution by a panel of 12 to 15 panelists in a two-alternative forced-choice test (2-AFC. E2164-16_Standard Test Method for Directional Difference Test). The panelists were trained to differentiate between the sweetness of a 150 ppm and a 190 ppm Rebaudioside M solution.

The conditions of assay [4]: 5% sucrose in water; cited from earlier work.

Take `C[C@@H]1O[C@@H](O[C@H]2[C@H](OC(=O)[C@]34CCC(C)(C)C[C@H]3C3=CCC5[C@@]6(C)C[C@H](O)[C@H](O[C@@H]7O[C@H](CO[C@@H]8OC[C@H](O)[C@H](O)[C@H]8O)[C@@H](O)[C@H](O)[C@H]7O)C(C)(C)C6CC[C@@]5(C)[C@]3(C)C[C@H]4O)OC[C@@H](O)[C@@H]2O)[C@H](O)[C@H](O[C@@H]2OC[C@](O)(CO)[C@H]2O)[C@H]1O[C@@H]1OC[C@H](O)[C@H](O[C@@H]2OC[C@@H](O)[C@H](O)[C@H]2O)[C@H]1O` (stereo partly shown) [Astersaponin A]: the Sweetness in assay [1] was 2. The Sucrose enhancement result in assay [2] is “x”. The “Reb M enhancement” value in assay [3] is “x”.

`C[C@@H]1O[C@@H](O[C@H]2[C@H](OC(=O)[C@]34CCC(C)(C)C[C@H]3C3=CCC5[C@@]6(C)CC[C@H](O[C@@H]7O[C@H](CO[C@@H]8OC[C@H](O)[C@H](O)[C@H]8O)[C@@H](O)[C@H](O)[C@H]7O)C(C)(C)C6CC[C@@]5(C)[C@]3(C)C[C@H]4O)OC[C@@H](O)[C@@H]2O)[C@H](O)[C@H](O[C@@H]2OC[C@](O)(CO)[C@H]2O)[C@H]1O[C@@H]1OC[C@H](O)[C@H](O[C@@H]2OC[C@@H](O)[C@H](O)[C@H]2O)[C@H]1O` (stereo partly shown) [Astersaponin B] returned a Sweetness in assay [1] of 1. The Sucrose enhancement result in assay [2] is given as “x”. Besides, in assay [3], the “Reb M enhancement” value is given as “x”.

As to `C[C@@H]1O[C@@H](O[C@@H]2[C@@H](O[C@@H]3O[C@@H](C)[C@H](O[C@@H]4OC[C@H](O)[C@H](O[C@@H]5OC[C@@H](O)[C@H](O)[C@H]5O)[C@H]4O)[C@@H](OC4OC[C@](O)(CO)[C@H]4O)[C@H]3O)[C@H](OC(=O)[C@]34CCC(C)(C)C[C@H]3C3=CCC5[C@@]6(C)C[C@H](O)[C@H](O[C@@H]7O[C@H](CO[C@@H]8OC[C@H](O)[C@H](O)[C@H]8O)[C@@H](O)[C@H](O)[C@H]7O)C(C)(C)C6CC[C@@]5(C)[C@]3(C)C[C@H]4O)OC[C@H]2O)[C@H](O)[C@H](O)[C@H]1O` (stereo partly shown) [Astersaponin C], the Sweetness in assay [1] is reported as 3. Besides, the Sucrose enhancement entry in assay [2] is given as “x”. The “Reb M enhancement” value in assay [3] was “x”.

In assay [1], `C[C@@H]1O[C@@H](O[C@@H]2[C@@H](O[C@@H]3O[C@@H](C)[C@H](O[C@@H]4OC[C@H](O)[C@H](O[C@@H]5OC[C@@H](O)[C@H](O)[C@H]5O)[C@H]4O)[C@@H](O[C@@H]4OC[C@](O)(CO)[C@H]4O)[C@H]3O)[C@H](OC(=O)[C@]34CCC(C)(C)C[C@H]3C3=CCC5[C@@]6(C)CC[C@H](O[C@@H]7O[C@H](CO[C@@H]8OC[C@H](O)[C@H](O)[C@H]8O)[C@@H](O)[C@H](O)[C@H]7O)C(C)(C)C6CC[C@@]5(C)[C@]3(C)C[C@H]4O)OC[C@H]2O)[C@H](O)[C@H](O)[C@H]1O` (stereo partly shown) [Astersaponin D] showed a Sweetness of 2. Besides, in assay [2], the Sucrose enhancement result is given as “x”. Also, in assay [3], the “Reb M enhancement” value is “x”.

The molecule `C[C@@H]1O[C@@H](O[C@H]2[C@H](OC(=O)[C@]34CCC(C)(C)C[C@H]3C3=CC[C@@H]5[C@@]6(C)C[C@H](O)[C@H](O[C@@H]7O[C@H](CO[C@@H]8OC[C@H](O)[C@H](O)[C@H]8O)[C@@H](O)[C@H](O)[C@H]7O)C(C)(C)[C@@H]6CC[C@@]5(C)[C@]3(C)C[C@H]4O)OC[C@@H](O)[C@@H]2O)[C@H](O)[C@H](O)[C@H]1O[C@@H]1OC[C@H](O)[C@H](O[C@@H]2OC[C@@H](O)[C@H](O)[C@H]2O)[C@H]1O` [Astersaponin E] yielded a Sweetness in assay [1] of 2. The Sucrose enhancement result in assay [2] is listed as “x”. Moreover, the “Reb M enhancement” value in assay [3] is reported as “x”.

`C[C@@H]1O[C@@H](O[C@H]2[C@H](OC(=O)[C@]34CCC(C)(C)C[C@H]3C3=CCC5[C@@]6(C)CC[C@H](O[C@@H]7O[C@H](CO[C@@H]8OC[C@H](O)[C@H](O)[C@H]8O)[C@@H](O)[C@H](O)[C@H]7O)C(C)(C)C6CC[C@@]5(C)[C@]3(C)C[C@H]4O)OC[C@@H](O)[C@@H]2O)[C@H](O)[C@H](O)[C@H]1O[C@@H]1OC[C@H](O)[C@H](O[C@@H]2OC[C@@H](O)[C@H](O)[C@H]2O)[C@H]1O` (stereo partly shown) [Astersaponin F]: the Sweetness in assay [1] was 1. In assay [2], the Sucrose enhancement result is “x”. Further, in assay [3], the “Reb M enhancement” value was “x”.

`COc1ccc([C@@H]2CC(=O)c3c(O)cc(O)cc3O2)cc1O` [hesperetin]: the “enhancement of the sweetness of sucrose” value in assay [4] is reported as 41%.
